The record followed here is patent EP4786540A1, “POLYMER COMPOSITION AND METHOD FOR PRODUCING SAME, FORMULATION, CROSSLINKED PRODUCT, AND TIRE” (priority 2023, dated 2025).

Structures are written as SMILES.

A short description of data set [1]: pH of the acid forming the acid component (pH meter, 20°C). It counts as physicochemical. Conditions: organic acid 1.0 g in purified water 1.0 L, inorganic acid 0.1-mol/L aqueous solution, for a salt, pH of the acid forming it. Here is the method:
No particular limitation is imposed on the acidity of the acid forming the acid component (B), which is specifically the pH of the acid forming the acid component (B) at 20°C, is for example, 1 to 6. […] When the acid component (B) is an inorganic acid, the pH corresponds to a value measured by use of a […] aqueous solution. In the case of a metal salt of the acid, the pH corresponds to the pH of the acid forming the metal salt thereof.
The pH of a liquid prepared by mixing an acid (1.0 g) and purified water (1.0 L) was measured at 20°C by means of a pH meter (product of HORIBA, Ltd.). In the case of an organic acid salt, the pH of the acid forming the salt was measured.
The pH of a 0.1-mol/L aqueous solution of the acid employed was measured at 20°C in the same manner as employed above.

Data set [2] in a line: physchem. Here is the method: The acid component (B) preferably has high solubility in a good solvent for the modified conjugated diene-based polymer (A).
An acid or a metal salt thereof (1.0 g) was added to cyclohexane (1.0 L), and the system was tightly closed. The contents were mixed at 25°C for 5 minutes. The resultant liquid mixture was allowed to stand for 10 minutes, and then the state of the liquid mixture was visually observed.

On to `Cl` [b-3, hydrochloric acid], for which the pH in data set [1] worked out at 1. On the same count and under the same terms, the same measure for `CCCCC(CC)C(=O)O` (centres unmarked) [b-1, 2-ethylhexanonic acid]: 3.

Regarding `O=C(O)c1ccccc1C(=O)O` [b-2, phthalic acid], the solubility at 5 min in data set [2] (25 °C, organic solvent or mixture, thermodynamic from solid) was at least 1 mg/mL. Further, the pH in data set [1] is listed as 4. `CCCCC(CC)COP(=O)(O)OCC(CC)CCCC` (centres unmarked) [b-4, bis(2-ethylhexyl) phosphate]: in data set [2] (1.0 g in 1.0 L cyclohexane, mixed 5 minutes, stood 10 minutes, visual), the “solubility in cyclohexane at 25°C” value is at least 1.0 mg/mL.
